Experimental findings from patent EP4644391A1, “NOVEL PHENYLQUINOLONE COMPOUND HAVING ANTIBACTERIAL AND ANTICANCER FUNCTIONS, AND PREPARATION THEREOF” (Alphamol Science Ltd (Shanghai), priority 2022, dated 2024) are described below.

Holding throughout (assay): In vitro anticancer activity test (MTT cell proliferation assay)
Assay type in all cases: cell-based

One experiment deals with Hela. The settings on record: Homo sapiens. How it is done:
(§1) The anticancer activity of the compounds was tested using an in vitro cancer cell tests. The specific test method is as follows: • 1. Cell recovery and culture method: the cryovial was taken out from the liquid nitrogen container firstly, soaked directly in 37°C warm water, and shaked from time to time to let it thaw as soon as possible. Then, the cryovial was transferred to a clean bench, and the lid was open. The cell suspension was taken into a centrifuge tube using a rubber-tipped dropper and more than 10 times the culture medium was added, mixed well, and centrifuged at 50g for 5 minutes. Then, the supernatant was discarded, complete culture medium containing 10% fetal bovine serum was added to resuspend the cells, the cells was counted, the cell density was adjusted, and then inoculated into a culture bottle. The culture bottle was placed in a cell culture incubator at 5% CO2 and 37°C. The complete culture medium was replaced once the next day and the culture was continued. • 2. Cell passaging method: adherent cells in the logarithmic growth phase were placed in a clean bench, the original culture medium was discarded, and washed three times with 1×PBS. An appropriate amount of 0.25% trypsin digestion solution was added to moisten the cells, and then the trypsin solution was aspirated. The cells were placed in a cell culture incubator at 5% CO2 and 37°C for digestion for a suitable time, and observed under a microscope. When 90% of the cells become round, the cells were moved immediately to the clean bench and complete culture medium was added to terminate digestion. Then, the cells were dislodged by pipetting up and down with a rubber-tipped dropper to single cells. The cells were counted, and the cell density was adjusted. The cells were inoculated into a suitable culture bottle or dish, added enough complete culture medium, and placed in a cell culture incubator at 5% CO2 and 37°C for static culture. For suspension cells in the logarithmic phase, the original culture medium was directly centrifuged at 50g for 5 minutes, the supernatant was discarded, and the cells were washed once with PBS and centrifuged. After discarding the supernatant, the complete culture medium was added and the cells were dispersed using a rubber-tipped dropper. The cells are counted, and the cell density was adjusted. The cells were inoculated into appropriate culture bottles or culture dishes, and sufficient complete culture medium was added, and the cells were cultured in a cell culture incubator at 5% CO2 and 37°C. • 3. Cell proliferation assay: cells in good state in logarithmic phase were taken and appropriate amount of the cells was inoculated into 96-well plates according to the cell passage treatment method, with each well containing 180 µL complete medium. After the cells growth was recovered and the number of cells in each well is 5000±500, a drug was added for treatment. After drug treatment during the experimental time, MTT solution with a final concentration of 0.5 mg/mL was added to each well, and placed in a cell culture incubator at 5% CO2 and 37°C to allow a fully reaction of MTT with cells. After 4 hours, the solution in the 96-well plate was discarded, 100 µL of DMSO was added, and shaked to dissolve the formazan precipitated at the bottom of the plate, and the absorbance value of samples was detected at a wavelength of 570 nm using a microplate reader. Calculation method of cell viability rate: Viability rate = A sample group÷A control group × 100% [formula] • 4. Cell photography step: cells in good state in logarithmic phase were taken and an appropriate amount of cells was inoculated into 96-well plates according to the cell passage treatment method, with each well containing 180 µL complete medium. After the cells growth was recovered and the number of cells in each well is 5000 ± 500, a drug was added for treatment. […]

For experiment [1], the system named is human Burkitt's lymphoma cell Raji. The method, then:
as §1

Experiment [2] relates to human breast cancer cell MFM223. As to conditions: MFM-223. How it is done: as §1
For experiment [3], the system named is human colon cancer cell HCT 116. The method, then:
as §1

For experiment [4], the system named is human gastric cancer cell MGC-803. How it is done:
as §1

In the next experiment the test system is human glioma cell SNB-19. The method, then:
as §1

The subject of experiment [5] is human liver cancer cell HepG2. How it is done:
as §1

Experiment [6] relates to human malignant melanoma cell A375. The settings on record: A-375. How it is done: as §1
Experiment [7] concerns human non-small cell lung cancer cell A549. How it is done: as §1
In experiment [8] the test system is human osteosarcoma cell U2-OS. As to conditions: U2OS. How it is done: as §1
The subject of experiment [9] is human prostate cancer cell PC-3. How it is done:
as §1

Experiment [10] deals with pancreatic cancer cell PNAC-1. How it is done: as §1

As a reminder, the IC50 is the concentration that inhibits the measured activity by half. As usually defined, the inhibition is the share of the control response that was lost under treatment.

Molecules are shown by their SMILES. Where only a bound is given, the exact number is not on record here.

As for `CCN(CC)CCNC(=O)c1c(C)[nH]c(/C=C2\C(=O)Nc3ccc(F)cc32)c1C` [Sunitinib], the IC50 with Hela is 12 ± 2 µM; in experiment [1] it was 20.3 ± 2 µM; in experiment [2], 10.2 ± 3.8 µM; in [3], 20.7 ± 4.6 µM; in experiment [4], 17.5 ± 2.4 µM; in the experiment with human glioma cell SNB-19, 6.5 ± 1.2 µM. The IC50 in [5] was found to be 9.6 ± 2.1 µM; in experiment [6], 19.2 ± 4.6 µM; in [7], 12.9 ± 10.2 µM; in experiment [8], 4.7 ± 1.1 µM; in experiment [9], 14.7 ± 6.6 µM; in [10], 22.4 ± 5.2 µM.

On to `O=C(O)c1cn(C2CC2)c2cc(N3CCNCC3)c(F)cc2c1=O` [Ciprofloxacin], for which the IC50 (in the experiment with Hela; in experiment [1]; in experiment [2]; in [3]; in experiment [4]; in the experiment with human glioma cell SNB-19) was above 100 µM throughout. The IC50 in [5], in experiment [6], in [7], in experiment [8], in experiment [9] and in [10] was above 100 µM in each case.

Take `O=C(O)c1cn(C2CC2)c2c(Cl)c(-c3ccc(S(=O)(=O)NCCCC(F)(F)F)nc3)c(F)cc2c1=O` [Example 29, 8-chloro-1-cyclopropyl-6-fluoro-4-oxo-7-(6-(N-(4,4,4-trifluorobutyl)sulfamoyl)pyridin-3-yl)-1,4-dihydroquinolin-3-carboxylic acid]: the IC50 (in the experiment with Hela; in experiment [1]; in experiment [2]; in [3]; in experiment [4]; in the experiment with human glioma cell SNB-19) was 1 to 10 µM throughout. In addition, the IC50 in experiment [5], in experiment [6], in [7], in [8], in experiment [9] and in experiment [10] was 1 to 10 µM each time. In the experiment with Hela (average proliferation inhibition rate at the dosage of 40 µM), this compound returned an inhibition at 40 µM of at least 50%.
